In ChEMBL document CHEMBL1201862, “PubChem BioAssay data set” (2004):
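Method: 48-hour compound exposure of cells in 96-well plates, five concentrations, linear interpolation of endpoints. GI50 = concentration required for 50% inhibition of growth.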 Activity calls are given as the source filed them. Cut-off read from the data, not from the text of the source: active = GI50 up to about 1.1 µM and inactive = higher. Peptide text beside a SMILES is read from it. * marks the point of attachment. Boc = CC(C)(C)OC(=O)*; OBn = c1ccc(CO*)cc1

Legend:
Assay in all cases: NCI-60 cell line screen, 48 h
COLO 205 = tested on: COLO 205
HT-29 = tested on: HT-29
K562 = tested on: K562
MCF7 = tested on: MCF7
MDA-MB-435 = tested on: MDA-MB-435
MDA-N = tested on: MDA-N
NCI-H460 = tested on: NCI-H460
OVCAR-4 = tested on: OVCAR-4
OVCAR-5 = tested on: OVCAR-5
RPMI-8226 = tested on: RPMI-8226
SF-268 = tested on: SF-268
SN12C = tested on: SN12C
SNB-19 = tested on: SNB-19
SNB-75 = tested on: SNB-75
SW-620 = tested on: SW-620
U-251 = tested on: U-251
UACC-257 = tested on: UACC-257
UACC-62 = tested on: UACC-62
Hs-578T = tested on: Hs-578T

| SMILES | GI50 (COLO 205) | GI50 (HT-29) | GI50 (K562) | GI50 (MCF7) | GI50 (MDA-MB-435) | GI50 (MDA-N) | GI50 (NCI-H460) | GI50 (OVCAR-4) | GI50 (OVCAR-5) | GI50 (RPMI-8226) | GI50 (SF-268) | GI50 (SN12C) | GI50 (SNB-19) | GI50 (SNB-75) | GI50 (SW-620) | GI50 (U-251) | GI50 (UACC-257) | GI50 (UACC-62) | GI50 (Hs-578T) |
| --- | --- | --- | --- | --- | --- | --- | --- | --- | --- | --- | --- | --- | --- | --- | --- | --- | --- | --- | --- |
| CCOC(=O)C1C2CCC1CC(=NNc1ccc([N+](=O)[O-])cc1[N+](=O)[O-])C2 (centres undefined) | > 50 µM (inactive) | 47.2 µM (inactive) | 29.2 µM (inactive) | > 50 µM (inactive) | > 50 µM (inactive) | > 50 µM (inactive) | > 50 µM (inactive) | > 50 µM (inactive) | > 50 µM (inactive) | 42.4 µM (inactive) | > 50 µM (inactive) | > 50 µM (inactive) | > 50 µM (inactive) | 18 µM (inactive) | > 50 µM (inactive) | > 50 µM (inactive) | > 50 µM (inactive) | > 50 µM (inactive) |  |
| Cc1ccc2c(C)c3ccc4ccccc4c3c[n+]2c1.[O-][Cl+3]([O-])([O-])[O-] | 12.2 µM (inactive) | 32.4 µM (inactive) | 56.5 µM (inactive) |  |  |  | 14.3 µM (inactive) | 16 µM (inactive) | 51.3 µM (inactive) | 16.6 µM (inactive) | 2.57 µM (inactive) | 4.68 µM (inactive) | 6.46 µM (inactive) | 11.2 µM (inactive) | 10.1 µM (inactive) | 5.02 µM (inactive) | 12.4 µM (inactive) | 13.7 µM (inactive) |  |
| O=P(c1ccccc1)(c1ccccc1)C(NCc1ccccc1)c1ccc(F)cc1 (centres undefined) | 14.7 µM (inactive) | 13.2 µM (inactive) | 18.7 µM (inactive) |  | 8.41 µM (inactive) | 17.1 µM (inactive) | 12.2 µM (inactive) | 20.3 µM (inactive) |  | 25.9 µM (inactive) | 19.7 µM (inactive) | 17.9 µM (inactive) | 17.9 µM (inactive) | 23.8 µM (inactive) | 18.5 µM (inactive) | 15.6 µM (inactive) | 18 µM (inactive) | 13 µM (inactive) | 28.4 µM (inactive) |
| COC1(OC)C(N(C)C)=C(Cl)C(=O)/C1=C/C=O | > 100 µM (inactive) | > 100 µM (inactive) | 33.1 µM (inactive) |  |  |  | > 100 µM (inactive) | > 100 µM (inactive) | > 100 µM (inactive) | 61 µM (inactive) | > 100 µM (inactive) | > 100 µM (inactive) | > 100 µM (inactive) |  | 97.1 µM (inactive) | > 100 µM (inactive) | 83.8 µM (inactive) | 40 µM (inactive) |  |
| Clc1ccc(OCc2nnc3sc(SSc4nn5c(COc6ccc(Cl)cc6)nnc5s4)nn23)cc1 | > 100 µM (inactive) | > 100 µM (inactive) | 74.3 µM (inactive) |  | 92.9 µM (inactive) |  | > 100 µM (inactive) |  | > 100 µM (inactive) | 44.8 µM (inactive) | > 100 µM (inactive) | > 100 µM (inactive) | > 100 µM (inactive) | > 100 µM (inactive) | > 100 µM (inactive) | > 100 µM (inactive) | > 100 µM (inactive) |  | > 100 µM (inactive) |
| CCCN(CCCN)/[N+]([O-])=N\O | > 100 µM (inactive) | > 100 µM (inactive) | > 100 µM (inactive) |  |  |  | > 100 µM (inactive) | > 100 µM (inactive) | > 100 µM (inactive) | > 100 µM (inactive) | > 100 µM (inactive) | > 100 µM (inactive) | > 100 µM (inactive) | > 100 µM (inactive) | > 100 µM (inactive) | > 100 µM (inactive) | > 100 µM (inactive) | 0.195 µM (active) |  |
| N#Cc1ccc(/C=N/C23CC4CC(CC(C4)C2)C3)cc1 | > 100 µM (inactive) | 63.1 µM (inactive) | 39.5 µM (inactive) |  |  |  | > 100 µM (inactive) | > 100 µM (inactive) | > 100 µM (inactive) | > 100 µM (inactive) | > 100 µM (inactive) | > 100 µM (inactive) | > 100 µM (inactive) | > 10 µM (inactive) | > 100 µM (inactive) | > 100 µM (inactive) | > 100 µM (inactive) | > 100 µM (inactive) |  |
| Nc1ccn(C2(CO)C=C(CO)C(O)C2O)c(=O)n1 (centres undefined) | > 25.8 µM (inactive) |  | > 25.8 µM (inactive) |  |  |  | > 25.8 µM (inactive) | > 25.8 µM (inactive) |  | > 25.8 µM (inactive) | > 25.8 µM (inactive) | > 25.8 µM (inactive) | > 25.8 µM (inactive) | > 25.8 µM (inactive) | > 25.8 µM (inactive) | > 25.8 µM (inactive) | > 25.8 µM (inactive) | > 25.8 µM (inactive) |  |
| CC(NC(=O)C(NC(=O)OC(C)(C)C)C(C)C)C(=O)N1CCCC1C(=O)NCC(=O)NC(C(=O)NCC(=O)OCc1ccccc1)C(C)C (centres undefined) (Boc-VAPGVG-OBn; configuration not given here) | > 100 µM (inactive) | > 100 µM (inactive) | > 100 µM (inactive) | > 100 µM (inactive) | > 100 µM (inactive) | > 100 µM (inactive) | > 100 µM (inactive) | > 100 µM (inactive) | > 100 µM (inactive) | > 100 µM (inactive) | > 100 µM (inactive) | > 100 µM (inactive) | > 100 µM (inactive) | 71.3 µM (inactive) | > 100 µM (inactive) | > 100 µM (inactive) | > 100 µM (inactive) | 66.4 µM (inactive) |  |
| N#CCCOc1cccc(C2(N3CCCCC3)CCCCC2)c1 | > 100 µM (inactive) | > 100 µM (inactive) | > 100 µM (inactive) | > 100 µM (inactive) | > 100 µM (inactive) |  |  | > 100 µM (inactive) | > 100 µM (inactive) | > 100 µM (inactive) | > 100 µM (inactive) | > 100 µM (inactive) | > 100 µM (inactive) |  | > 100 µM (inactive) | > 100 µM (inactive) | > 100 µM (inactive) | > 100 µM (inactive) | > 100 µM (inactive) |
| Cc1c(S(=O)(=O)/N=C(\NN)Nc2ccc(Cl)cc2)sc2ccc(Cl)cc12 | 16.3 µM (inactive) | 16.6 µM (inactive) | 24 µM (inactive) | 14.9 µM (inactive) |  | 15.6 µM (inactive) | 16.6 µM (inactive) | 15.5 µM (inactive) | 14.4 µM (inactive) | 27.9 µM (inactive) | 18.8 µM (inactive) | 16.7 µM (inactive) | 23.3 µM (inactive) | 14.8 µM (inactive) | 24 µM (inactive) | 16.3 µM (inactive) | 18.2 µM (inactive) | 14.2 µM (inactive) | 36.6 µM (inactive) |
| COc1ccc2c(c1)N=C(N)n1c(nc3ccccc31)S2 | 5.27 µM (inactive) | 3.96 µM (inactive) | 10.9 µM (inactive) | 10.9 µM (inactive) |  | 3.45 µM (inactive) | 8.18 µM (inactive) | 4.66 µM (inactive) | 6.34 µM (inactive) | 4.47 µM (inactive) | 19.5 µM (inactive) | 51.6 µM (inactive) | 82 µM (inactive) | 31.7 µM (inactive) | 39.9 µM (inactive) | 6.27 µM (inactive) | 11.8 µM (inactive) | 16.3 µM (inactive) | 58.1 µM (inactive) |
| NCCSc1nc2ccccc2c(=O)n1-c1ccccc1 | > 100 µM (inactive) | 49.7 µM (inactive) | 39.9 µM (inactive) | 90.8 µM (inactive) | 23.9 µM (inactive) | 42.9 µM (inactive) |  | 52.8 µM (inactive) | > 100 µM (inactive) | > 10 µM (inactive) |  | > 100 µM (inactive) | 0.236 µM (active) | 33.9 µM (inactive) | 45.5 µM (inactive) | 34.4 µM (inactive) | 77.1 µM (inactive) | 26.4 µM (inactive) |  |
| Nc1ccc(-c2nn3c(COc4ccc(Cl)cc4)nnc3s2)cc1 | 74.5 µM (inactive) | > 100 µM (inactive) | > 100 µM (inactive) |  | 62.2 µM (inactive) |  | 40 µM (inactive) | > 100 µM (inactive) | > 100 µM (inactive) | 77.6 µM (inactive) |  | > 100 µM (inactive) | 88.1 µM (inactive) | > 100 µM (inactive) | > 100 µM (inactive) | > 100 µM (inactive) | > 100 µM (inactive) | > 100 µM (inactive) | 25.3 µM (inactive) |
| Cc1c2n(c(=O)[nH]c1=O)C1OC(CO)C(O2)C1O (centres undefined) | > 100 µM (inactive) | > 100 µM (inactive) | > 100 µM (inactive) |  |  |  | > 100 µM (inactive) | > 100 µM (inactive) |  | > 100 µM (inactive) | > 100 µM (inactive) | > 100 µM (inactive) | > 100 µM (inactive) | > 100 µM (inactive) | > 100 µM (inactive) | > 100 µM (inactive) | > 100 µM (inactive) | > 100 µM (inactive) |  |
| COC1OC(C)C(O)CC1OS(=O)(=O)c1ccc(C)cc1 (centres undefined) | > 100 µM (inactive) | > 100 µM (inactive) | > 100 µM (inactive) |  |  |  | > 100 µM (inactive) | > 100 µM (inactive) | > 100 µM (inactive) | > 100 µM (inactive) | > 100 µM (inactive) | > 100 µM (inactive) | > 100 µM (inactive) | 37.9 µM (inactive) | > 100 µM (inactive) | > 100 µM (inactive) | > 100 µM (inactive) | > 100 µM (inactive) |  |
| CC(C)C1CCC/C=C/C=C/C=C/C=C/C(OC2OC(C)C(O)C(N)C2O)CC2OC(O)(CC(O)CC(O)C(O)CCC(=O)O1)CC(O)C2C(=O)O (centres undefined) | > 52.5 µM (inactive) | > 52.5 µM (inactive) | > 52.5 µM (inactive) |  |  |  |  |  |  | > 52.5 µM (inactive) | > 52.5 µM (inactive) | > 52.5 µM (inactive) | > 52.5 µM (inactive) | > 52.5 µM (inactive) | > 52.5 µM (inactive) | > 52.5 µM (inactive) |  | > 52.5 µM (inactive) |  |
